What was measured:
human STING protein = human STING protein (Homo sapiens (Human), UniProt Q86WV6); assay: WT STING binding assay (HTRF, competition with labeled 2′3′cGAMP); conditions: recombinant 6×His-tagged human STING, three hours at room temperature
Procedure: WT STING binding assay (Cisbio, Catalog #64BDSTGPEH). […] Upon proximity of the two dyes, the excitation of the donor by the flash lamp on the PHERAstar FSX plate reader triggers a Fluorescence Resonance Energy Transfer (FRET) towards the acceptor, which in turn fluoresces at 665 nm. To assess the ability of the synthetic small molecule STING ligands to bind to human STING, a competitive assay format was applied. A 10-point titration of each of the synthetic ligands in 5 uL were transferred into a 384 well plate, followed by 20 uL of assay buffer containing the 6×His-tagged human STING protein and labeled 2′3′cGAMP ligand and incubated for three hours at room temperature. The raw values obtained from the PHERAstar were used to calculate the reported IC50 values (the signal is inversely proportional to the binding of the synthetic ligand) through curve fitting in Genedata. The percent inhibition was calculated based upon the maximal amount of binding by synthetic compound versus the maximum binding of unlabeled 2′3′ cGAMP which was used as a control in each assay.

THP-1 Lucia ISG cells = assay: ISRE-luciferase assay (ISG-LUC activation); type: cell-based; conditions: Homo sapiens, THP1-Lucia ISG, 24 hours, luciferase reporter
Procedure: ISRE-luciferase assay. THP-1 Lucia ISG cells were resuspended in low-serum growth media (2% FBS) at a density of 5×10^5 cells/ml and treated with test article or vehicle (DMSO). 50 μL of cells were seeded into each well of a 384-well white greiner plates and incubated for 24 hours. To evaluate expression of the luciferase reporter, 30 μl of Quanti-luc (Invivogen) detection reagent was added to each well and luminescence was read using an Envision plate reader (Perkin Elmer) set with an integration time of 0.1 seconds. For each cell type, luminescence signals for test article samples were normalized to vehicle-treated samples and reported as relative light units (RLU).

Sequence of human STING protein (Q86WV6 whole entry): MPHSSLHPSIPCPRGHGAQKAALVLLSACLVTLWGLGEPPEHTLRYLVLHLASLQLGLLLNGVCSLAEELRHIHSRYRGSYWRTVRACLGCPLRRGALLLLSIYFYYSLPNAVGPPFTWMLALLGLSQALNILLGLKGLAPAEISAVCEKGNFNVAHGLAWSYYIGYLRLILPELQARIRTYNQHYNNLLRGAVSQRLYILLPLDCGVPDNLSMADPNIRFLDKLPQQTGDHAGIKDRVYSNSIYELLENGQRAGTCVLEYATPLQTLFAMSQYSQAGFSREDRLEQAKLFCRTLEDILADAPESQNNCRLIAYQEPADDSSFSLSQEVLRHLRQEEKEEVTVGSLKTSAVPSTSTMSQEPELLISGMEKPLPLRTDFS

SMILES	IC50 (human STING protein) [nM]	EC50 (THP-1 Lucia ISG cells) [nM]
O=C(Nc1cc(OCCCCOc2cc(NC(=O)c3ccc4nnnn4n3)c(C(=O)O)cc2F)ccc1C(=O)O)c1ccc2nnnn2n1 [Compound 1, 4-(4-(4-carboxy-3-(tetrazolo[1,5-b]pyridazine-6-carboxamido)phenoxy)butoxy)-5-fluoro-2-(tetrazolo[1,5-b]pyridazine-6-carboxamido)benzoic acid]	100 to 1000	500 to 5000
O=C(Nc1cc(C[S+]([O-])Cc2cc(NC(=O)c3ccc(-n4ccnc4)nn3)c(C(=O)O)cc2F)c(F)cc1C(=O)O)c1ccc(-n2ccnc2)nn1 [Compound 7, 4,4′-(sulfinylbis(methylene))bis(2-(6-(1H-imidazol-1-yl)pyridazine-3-carboxamido)-5-fluorobenzoic acid)]	10 to 100	500 to 5000
O=C(Nc1cc(OCCCCOc2ccc(C(=O)O)c(NC(=O)c3ccc(-n4ccnc4)nn3)c2)ccc1C(=O)O)c1ccc(-n2ccnc2)nn1 [Compound 16]	100 to 1000	> 5000
O=c1oc(-c2ccc(-n3ccnc3)nn2)nc2cc(OCCCCOc3cc4nc(-c5ccc(-n6ccnc6)nn5)oc(=O)c4cc3F)ccc12 [Compound 46]	100 to 1000	500 to 5000
COC(=O)c1ccc(CCCc2ccc(C(=O)O)c(NC(=O)c3ccc(-n4ccnc4)nn3)c2)cc1NC(=O)c1ccc(-n2ccnc2)nn1 [Compound 47]	100 to 1000	500 to 5000
O=C(Nc1cc(CCCc2ccc(C(=O)O)c(NC(=O)c3ccc(-n4ccnc4)nn3)c2)ccc1C(=O)O)c1ccc(-n2ccnc2)nn1 [Compound 48]	10 to 100	50 to 500
O=C(Nc1cc(CCCc2cc(NC(=O)c3ccc(-n4ccnc4)nn3)c(C(=O)O)nc2Cl)c(F)cc1C(=O)O)c1ccc(-n2ccnc2)nn1 [Compound 52]	10 to 100	50 to 500
O=C(Nc1cc(CCCc2ccc(NC(=O)c3ccc(-n4ccnc4)nn3)c(C(=O)O)c2)ccc1C(=O)O)c1ccc(-n2ccnc2)nn1 [Compound 55]	10 to 100	500 to 5000
CC(=O)Nc1cc(CCCc2cc(NC(=O)c3ccc(-n4ccnc4)nn3)c(C(=O)O)cc2F)ccc1C(=O)O [Compound 73]	100 to 1000	–
CCOC(=O)CCC(=O)c1cc2cc(OCCc3cc(NC(=O)c4ccc5nnnn5n4)c(C(=O)O)cc3F)c(OC)cc2s1 [Compound 122]	100 to 1000	–
O=C(Nc1cc(CCOc2cc(NC(=O)c3ccc(-n4ccnc4)nn3)c(P(=O)(O)O)cc2F)c(F)cc1C(=O)O)c1ccc(-n2ccnc2)nn1 [Compound 153]	100 to 1000	–
O=C(Nc1cc(OCCc2cc(NC(=O)c3ccc(-n4ccnc4)nn3)c(-c3nn[nH]n3)cc2F)c(F)cc1C(=O)O)c1ccc(-n2ccnc2)nn1 [Compound 179]	100 to 1000	–
COc1cc(NC(=O)c2ccc(-n3ccnc3)nn2)c(C(=O)O)c(F)c1OCCc1cc(NC(=O)c2ccc(-n3ccnc3)nn2)c(C(=O)O)cc1F [Compound 189]	100 to 1000	–
O=C(Nc1cc(CCOc2cc(NC(=O)c3ccc(-n4ccnc4)nn3)c(C(=O)O)cc2F)c(F)cc1CO)c1ccc(-n2ccnc2)nn1 [Compound 198]	100 to 1000	–
Cn1nccc1-c1ccc(C(=O)Nc2cc(CCCc3cc(NC(=O)c4ccc(-c5ccnn5C)nn4)c(C(=O)O)cc3F)c(F)cc2C(=O)O)nn1 [Compound 201]	100 to 1000	–
C#Cc1cc(NC(=O)c2ccc(-n3ccnc3)nn2)c(C(=O)O)cc1OCCc1cc(NC(=O)c2ccc(-n3ccnc3)nn2)c(C(=O)O)cc1F [Compound 209]	–	< 50

Results, then the compound that gave them:

IC50 (human STING protein) [nM]	EC50 (THP-1 Lucia ISG cells) [nM]	SMILES
10 to 100	< 50	O=C(Nc1cc(CCOc2cc(NC(=O)c3ccc4nnnn4n3)c(C(=O)O)cc2F)c(F)cc1C(=O)O)c1ccc(-n2ccnc2)nn1 [Compound 2, 2-(6-(1H-imidazol-1-yl)pyridazine-3-carboxamido)-4-(2-(4-carboxy-2-fluoro-5-(tetrazolo[1,5-b]pyridazine-6-carboxamido)phenoxy)ethyl)-5-fluorobenzoic acid]
< 10	500 to 5000	CN(Cc1cc(NC(=O)c2ccc(-n3ccnc3)nn2)c(C(=O)O)cc1F)Cc1cc(NC(=O)c2ccc(-n3ccnc3)nn2)c(C(=O)O)cc1F [Compound 8, 4,4′-((methylazanediyl)bis(methylene))bis(2-(6-(1H-imidazol-1-yl)pyridazine-3-carboxamido)-5-fluorobenzoic acid)]
100 to 1000	50 to 500	O=C(Nc1cc(OCCCCOc2cc(NC(=O)c3ccc4nnnn4n3)c(C(=O)O)cc2F)c(F)cc1C(=O)O)c1ccc2nnnn2n1 [Compound 12]
100 to 1000	500 to 5000	O=C(Nc1cc(OCCCCOc2cc(NC(=O)c3ccc(-n4ccnc4)nn3)c(C(=O)O)cc2F)c(F)cc1C(=O)O)c1ccc(-n2ccnc2)nn1 [Compound 17]
100 to 1000	> 5000	O=C(Nc1cc(OCCCCOc2cc(NC(=O)c3ccc(-n4ccnc4)nn3)c(C(=O)O)cc2F)c(F)cc1C(=O)O)c1ccc(O)nn1 [Compound 18]
100 to 1000	> 5000	O=C(Nc1cc(OCCCCOc2ccc(C(=O)O)c(NC(=O)c3ccc4nnnn4n3)c2)ccc1C(=O)O)c1ccc(-n2ccnc2)nn1 [Compound 20]
100 to 1000	> 5000	O=C(Nc1cc(OCCCCOc2cc(NC(=O)c3ccc4nnnn4n3)c(C(=O)O)cc2F)c(F)cc1C(=O)O)c1ccc(-n2ccnc2)nn1 [Compound 22]
100 to 1000	> 5000	COc1cc(C(=O)O)c(NC(=O)c2ccc(-n3ccnc3)nn2)cc1OCCCCOc1ccc(C(=O)O)c(NC(=O)c2ccc(-n3ccnc3)nn2)c1 [Compound 49]
100 to 1000	500 to 5000	O=C(Nc1cc(OCCCCOc2cc(NC(=O)c3ccc(-n4ccnc4)nn3)c(C(=O)O)cc2Cl)c(Cl)cc1C(=O)O)c1ccc(-n2ccnc2)nn1 [Compound 50]
100 to 1000	–	O=C(Nc1cc(OCCCCOc2cnc(C(=O)O)c(NC(=O)c3ccc(-n4ccnc4)nn3)c2)c(F)cc1C(=O)O)c1ccc(-n2ccnc2)nn1 [Compound 69]
100 to 1000	–	O=C(Nc1cc(OCCCCOc2cc(NC(=O)c3ccc(-n4ccnc4)nn3)c(C(=O)O)cc2Cl)ccc1C(=O)O)c1ccc(-n2ccnc2)nn1 [Compound 81]
100 to 1000	–	O=C(Nc1cc(CCCc2cc(NC(=O)c3ccc4cnnn4n3)c(C(=O)O)cc2F)c(F)cc1C(=O)O)c1ccc(O)nn1 [Compound 120]
100 to 1000	–	O=C(Nc1cc(OCCc2cc(NC(=O)c3ccc(-n4ccnc4)nn3)c(C(=O)O)cc2F)c(F)cc1C(=O)O)c1ccc(-c2cn[nH]c2)nn1 [Compound 158]
100 to 1000	–	O=C(Nc1cc(F)c(CCOc2cc(C(=O)O)c(NC(=O)c3ccc(-n4ccnc4)nn3)cc2F)cc1C(=O)O)c1ccc(-n2ccnc2)nn1 [Compound 178]
> 1000	–	NC(=O)c1cc(F)c(CCOc2cc(NC(=O)c3ccc(-n4ccnc4)nn3)c(C(=O)O)cc2F)cc1NC(=O)c1ccc(-n2ccnc2)nn1 [Compound 186]
–	< 50	O=C(Nc1cc(CCOc2cc(NC(=O)c3ccc(-n4ccnc4)nn3)c(C(=O)O)cc2F)c(F)cc1C(=O)O)c1ccc(-c2cn[nH]c2)nn1 [Compound 205]
100 to 1000	–	Cn1nccc1-c1ccc(C(=O)Nc2cc(CCOc3cc(NC(=O)c4ccc(-c5ccnn5C)nn4)c(C(=O)O)cc3F)c(F)cc2C(=O)O)nn1 [Compound 208]
100 to 1000	–	O=C(Nc1cc(OCCCOc2cc(NC(=O)c3ccc(-n4ccnc4)nn3)c(C(=O)O)cc2F)c(F)cc1C(=O)O)c1ccc(N2CCOCC2)nn1 [Compound 211]

Source: patent US20230357253A1, “AGONISTS OF STIMULATOR OF INTERFERON GENES STING” (THE SCRIPPS RESEARCH INSTITUTE, priority 2020, published 2023)
